Values quoted from earlier work as cited in patent US6214377A (Jenapharm GmbH, priority 1994, dated 2001).

Experiments:
[1] = human body
[2] = peroral administration

Which half-life period [1] does the source give for `COc1ccc2[nH]cc(CCNC(C)=O)c2c1` [melatonin, N-acetyl-5-methoxy-triptamine] here?
Its half-life period is “about 30 minutes”.

And the “side effects of unphysiological overdose” value [2]?
The value was “Increased spasmogenic situations, confusion, and sleeplessness”.
